In US20120237535A1, “Therapeutic Compositions For The Treatment of HPV-Induced Diseases” (priority 2009, published 2012):

Tests used:
[1] = test system: EL4 cells pulsed with DTc peptide; experiment: In vivo induction of CTL by immunization, chromium release assay; parameters: species or system C57BL/6 mice; settings: 2 nmol i.v. in PBS, no adjuvant; spleen cells day 7, cultured 5 days; compared with peptide DTc/E7(49-57)
Method: FIG. 4: In vivo induction of CTL by immunization with EDA-HPV-E7 protein or with the DTc/E7(49-57) peptide in PBS. (A) Mice were immunized i.v with 2 nmol EDA-HPV-E7 or with the DTc/E7(49-57) peptide. Seven days alter immunization, the mice were sacrificed and spleen cells were cultured in the presence or absence of DTc peptide for 5 days. CTL activity was measured using a conventional chromium release assay using EL4 cells radio labeled and pulsed with DTc peptide as target cells in the splenocytes cultures obtained from the mice immunized with the protein EDA-HPV-E7 (closed circles) ◯ with the peptide DTc/E7 (49-57) (open circles) (On the graphic, the absolute values are shown, said values are calculated by subtracting the value of lysis obtained without peptide from the value obtained in the presence of peptide). […]
It was assayed if mice immunized with the EDA-HPVE7 fusion protein developed HPVE7-specific T cell responses. […] CTL activity was measured using a conventional chromium release assay using radio labeled EL4 cells pulsed with DTc peptide or without peptide as target cells. (FIG. 4A) (On the graphic, the absolute values are shown, said values are calculated subtracting the value of lysis obtained without peptide from the value obtained in the presence of peptide). […]

[2] = test system: bone marrow-derived dendritic cells; experiment: IL-12 production by bone marrow-derived dendritic cells (ELISA); format: cell-based, mouse; settings: 500 nM; ELISA of culture supernatant
Method: (§1) FIG. 3: EDA-HPV-E7 fusion protein induces the production of IL-12 by bone marrow-derived dendritic cells or the production of TNF-α by the human monocyte cell line THP-1. (A) Bone marrow-derived dendritic cells were incubated for […] with EDA-HPVE7 (500 nM), with peptide E7(49-57) (500 nM), with LPS (1 μg/ml) (positive control) or with culture medium (negative control). 24 hours later, the culture supernatant was harvested and the IL-12 released to the supernatant was measured by ELISA. (B) THP-1 cells were incubated for 15 hours with EDA-HPVE7 (500 nM), with peptide E7(49-57) (500 nM), with LPS (1 μg/ml) or with culture medium (negative control). After culture, the supernatants were harvested and the released TNF-α was measured by ELISA.
(§2) Bone marrow (BM)-derived dendritic cells were generated from mouse femur marrow cell cultures. […] After 24 h of culture, supernatants were harvested and IL-12 (p70) and TNF-α were measured by ELISA (BD-Pharmingen), according to manufacturer's instructions. Expression of DC maturation markers was measured by flow cytometry. […] After this initial incubation, cells were stained with the primary antibodies at 4° C. for 15 min, washed and acquired on FACSscan cytometer (BD Biosciences, San Diego, Calif.) and analyzed using Cell Quest software (BD Biosciences). […]

[3] = test system: bone marrow-derived dendritic cells; experiment: Maturation of bone marrow-derived dendritic cells, maturation markers by flow cytometry; format: cell-based, mouse; settings: BMDC incubated with 500 nM
Method: FIG. 2: Activation of bone marrow-derived dendritic cell maturation by the EDAHPV-E7 fusion protein. Bone marrow-derived dendritic cells were incubated for 48 hours with EDA-HPVE7 (500 nM), with peptide E7(49-57) (500 nM), with LPS (1 μg/ml) (positive control) or with culture medium (Control Neg). Cells were then harvested and analyzed by flow cytometry for the expression of the H-2b molecule or the maturation markers CD54 and CD86 (RFU: Relative fluorescence units).
as §2, with “cultures. After lysing erythrocytes with ACK lysing buffer, bone marrow cell were washed and subsequently depleted of lymphocytes and granulocytes by incubation with a mixture of antibodies against CD4 (GK1; ATCC, Manassas, Va.), CD8 (53.6.72; ATCC), Ly-6G/Gr1 (BD-Pharmingen; San Diego, Calif.) and CD45R/B220 (BD-Pharmingen) followed by rabbit complement.” for “cultures.”

[4] = test system: HPVE7-specific T cell responses; experiment: IFN-γ producing cells by ELISPOT in splenocytes of immunized mice; format: in vivo, C57BL/6 mice; settings: 2 nmol i.v. in PBS, compared with E7(49-57) peptide
[5] = test system: TC-1 tumor cells expressing HPV16-E6 and HPV16-E7; experiment: Therapeutic efficacy against established TC-1 tumors (approximately 8 mm, treated day 25); format: in vivo, C57BL/6 mice; settings: TC-1 s.c., treated i.v. day 25, tumors about 8 mm; for tumor growth: mean of two perpendicular diameters
Method: FIG. 6: Therapeutic efficacy of the EDA-HPVE7 fusion protein combined with poly I:C (pI:C). Mice were injected with 5×10^5 TC-1 cells and 25 days later, when tumor mean diameters were approximately 8 mm, they were treated intravenously with different vaccine combinations based on EDA (A). Tumor size, presented as the average of two perpendicular diameters (millimeters), was measured at regular intervals. The number of tumor-free mice on day 100 relative to the total number of animals included and the percent surviving on day 100 are indicated for each set of experiments. The p-value (*p<0.05) determined by the likelihood ratio test comparing tumor growth in the EDA-E7/pI:C treated group with tumor growth in the p:IC-treated group is indicated. The mice were sacrificed when the tumor diameters reached 20 mm or when necessary due to the sanitary status of the animals. (B) Survival curves from the immunized mice with the indicated immunogens are indicated (p values are indicated ((*p<0.05)). Pooled data of two independent experiments are shown.
THP1 cells (American Type Culture Collection ATCC, Manassas, Va.) were used for in vitro assays of monocyte activation by EDA derived fusion proteins. TC-1, tumor cells expressing HPV16-E6 and HPV16-E7 proteins derived from primary mouse lung epithelial cells, were obtained from the American Type Culture Collection (LGC Promochem, Molsheim, France). Cells were maintained in RPMI 1640 with GlutaMAX supplemented with 10% heat-inactivated fetal calf serum, 100 units/ml penicillin, 100 μg/ml streptomycin, 0.4 mg/ml geneticin and 5×10-5 mol/l 2-mercaptoethanol (Life Technologies, Cergy-Pontoise, France). 5×10^5 TC-1 cells were injected into the shaved back (left side) of C57BL/6 mice in 200 μL PBS. Tumor size, presented as the average of two perpendicular diameters (millimeters), was measured at regular intervals.
Monolix software (http://www.monolix.org/) was used for analysis of tumor growth data with non-linear mixed effect models. Mean diameters of tumors over time were fitted using the model described in equation 1.1 and treatments were compared using the likelihood ratio test.
Kaplan-Meier plots were used to analyze survival. Prism software (GraphPad Software, Inc. San Diego, USA) was used to determine the significance of differences in survival curves with a log rank test. The results of the in vivo killing analysis were analyzed by ANOVA followed by Dunnett's Multiple Comparison test. p values less than 0.05 were considered to be statistically significant.
To better evaluate the potency of EDA-HPVE7 as an antigen delivery system and as a vaccine, the therapeutic efficacy of this fusion protein was compared with that of the E7(49-57) peptide, both supplemented with TLR ligand pI:C. […]

[6] = test system: human monocyte cell line THP-1; experiment: In vitro monocyte activation, TNF-α released by THP-1 (ELISA); format: cell-based; settings: 500 nM, 15 hours
Method: as §1
THP-1 cells were plated at 1×10^6 cells/well and cultured overnight at 37° C. and 5% CO2 in complete medium for stabilization of the culture. Different concentrations of the indicated antigens were added to the cultures and after 15 hour of incubation, culture supernatants were harvested. The concentration of human TNF-α released to the medium by the THP-1 cell line was quantified using a commercial ELISA assay (BD Pharmingen), according to manufacturer's instructions.
Therefore, it was assayed if the recombinant protein EDA-HPV-E7 was also able to induce maturation of BMDC in vitro.

EDA-HPVE7: recombinant fusion protein: amino acids 1-29 of HPV-E7 at N-terminus of fibronectin EDA, amino acids 43-98 at C-terminus, six histidine residues
CTL activity against target cells pulsed with the cytotoxic T cell epitope E7 [1]: higher levels of CTL activity | production of IL-12 cytokine by BMDC [2]: able to strongly stimulate the production | expression of the maturation marker CD54 [3]: able to upregulate expression | expression of the maturation marker IAb [3]: able to upregulate expression | number of IFN-γ producing spots specific for E7(49-57) [4]: higher number of IFN-γ producing spots | number of IFN-γ producing spots specific for TC1 cells ([4]; irradiated TC1 cells): higher number of IFN-γ producing spots | tumor eradication (in words) [5]: unable to eradicate the tumors | tumor growth [5]: a delay in tumor growth was observed | production of TNF-α cytokine by THP-1 [6]: able to induce the production

Polyinosinic-polycytidylic acid [pI:C, reference compound]
survival ([5]; Kaplan-Meier, log rank test): slight, statistically non-significant prolongation of survival | tumor growth [5]: followed the same tumor growth kinetics
